In assay [1] the test system is R575. In words: Inhibition RIA of [3H]CsA binding to rabbit anti-cyclosporine antibodies R575. The settings on record: for affinity group for the rabbit antibodies: inhibition RIA, in words; for IC50: read-out: IC50 = Concentration for 50% inhibition, inhibition of [3H] dihydro CsA binding to rabbit antibody R575. The procedure:
Serum antibodies were detected by a modification of the published radioimmunoassay (5, 12). […] Binding by diluted preimmune serum was used as a control. Free and bound ligand were separated with charcoal supplied by Sandoz according to their procedure. […] The cyclosporin derivatives were dissolved in 100% ethanol at a concentration of 5.0 mg/ml, stored at -20° C., and diluted to final concentrations of 0.27 nM to 2.7 μM in Sandoz buffer B for the inhibition experiments.

For assay [2] the following is noted: single break in a peptide bond by N O shift; cited from earlier work.

“Also recorded” adds a separate entry of the source.

On to `C/C=C/C[C@@H](C)[C@@H](O)[C@H]1C(=O)N[C@@H](C(C)C)C(=O)N(C)CC(=O)N(C)[C@@H](CC(C)C)C(=O)N[C@@H](C(C)C)C(=O)N(C)[C@@H](CC(C)C)C(=O)N[C@@H](C)C(=O)N[C@H](C)C(=O)N(C)[C@@H](CC(C)C)C(=O)N(C)[C@@H](CC(C)C)C(=O)N(C)[C@@H](C(C)C)C(=O)N1C` [CsD], for which, in assay [1], the “affinity group for the rabbit antibodies” value is listed as “high affinity; also recorded: bind best” and the IC50 amounted to 4.3 nM.
For `C/C=C/C[C@@H](C)[C@@H](O)[C@H]1C(=O)N[C@@H](CC)C(=O)N(C)CC(=O)N(C)[C@@H](CC(C)C)C(=O)N[C@@H](C(C)C)C(=O)N(C)[C@@H](CC(C)C)C(=O)N[C@@H](C)C(=O)N[C@H](C)C(=O)N(C)[C@@H](CC(C)C)C(=O)N(C)[C@@H](CC(C)C)C(=O)N(C)[C@@H]([C@@H](C)CC)C(=O)N1C` [compound 032] the same measures were “high affinity; also recorded: bind best” and 7 nM.
For `C/C=C/C[C@@H](C)[C@@H](O)[C@H]1C(=O)N[C@@H](CC)C(=O)N(C)CC(=O)N(C)[C@@H](CC(C)C)C(=O)N[C@@H](C(C)C)C(=O)N(C)[C@H](C)C(=O)N[C@@H](C)C(=O)N[C@H](C)C(=O)N(C)[C@@H](CC(C)C)C(=O)N(C)[C@@H](CC(C)C)C(=O)N(C)[C@@H](C(C)C)C(=O)N1C` [compound 039] the same measures were “Moderate affinities” and 18 nM.
As for `C/C=C/C[C@@H](C)[C@@H](OC(C)=O)[C@H]1C(=O)N[C@@H](CC)C(=O)N(C)CC(=O)N(C)[C@@H](CC(C)C)C(=O)N[C@@H](C(C)C)C(=O)N(C)[C@@H](CC(C)C)C(=O)N[C@@H](C)C(=O)N[C@H](C)C(=O)N(C)[C@@H](CC(C)C)C(=O)N(C)[C@@H](CC(C)C)C(=O)N(C)[C@@H](C(C)C)C(=O)N1C` [compound 243], in assay [1], the “affinity group for the rabbit antibodies” value was “high affinity; also recorded: bind best” and the IC50 worked out at 6 nM.
For `C/C=C/C[C@@H](C)[C@@H](O)[C@H]1C(=O)N[C@@H](CC)C(=O)N2CCC[C@H]2C(=O)N(C)[C@@H](CC(C)C)C(=O)N[C@@H](C(C)C)C(=O)N(C)[C@@H](CC(C)C)C(=O)N[C@@H](C)C(=O)N[C@H](C)C(=O)N(C)[C@@H](CC(C)C)C(=O)N(C)[C@@H](CC(C)C)C(=O)N(C)[C@@H](C(C)C)C(=O)N1C` [compound 582] the same measures were “Moderate affinities” and 12 nM.
Consider `C/C=C/C[C@@H](C)[C@@H](O)[C@H]1C(=O)N[C@@H]([C@@H](C)O)C(=O)N(C)CC(=O)N(C)[C@@H](CC(C)C)C(=O)N[C@@H](C(C)C)C(=O)N(C)[C@@H](CC(C)C)C(=O)N[C@@H](C)C(=O)N[C@H](C)C(=O)N(C)[C@@H](CC(C)C)C(=O)N(C)[C@@H](CC(C)C)C(=O)N(C)[C@@H](C(C)C)C(=O)N1C` [CsC], for which, in assay [1], the “affinity group for the rabbit antibodies” value is given as “Moderate affinities” and the IC50 was determined as 11.5 nM. In assay [1] (listed as CSC), the “affinity group for the rabbit antibodies” value is reported as “moderate affinities”.
For `C/C=C/C[C@@H](C)[C@H]1OC(=O)[C@H](C(C)C)N(C)C(=O)[C@H](CC(C)C)N(C)C(=O)[C@H](CC(C)C)N(C)C(=O)[C@@H](C)NC(=O)[C@H](C)NC(=O)[C@H](CC(C)C)N(C)C(=O)[C@H](C(C)C)NC(=O)[C@H](CC(C)C)N(C)C(=O)CN(C)C(=O)[C@H](CC)NC(=O)[C@H]1NC` [iso-CsA], the biological activity entry in assay [2] is “loss of activity”.
